According to PMC6080930 (The Journal of Cell Biology, 2018):

Biological target: adenylyl cyclase A (ACA); ACA-YFP (Dictyostelium discoideum, UniProt Q03100)
Conditions: labelled compound; 2 mM MnSO4, 2 mM MgSO4, Tris pH 8.0, 22°C, 10 min; lysed EVs

adenylyl cyclase A (ACA); ACA-YFP, sequence (Q03100 whole entry): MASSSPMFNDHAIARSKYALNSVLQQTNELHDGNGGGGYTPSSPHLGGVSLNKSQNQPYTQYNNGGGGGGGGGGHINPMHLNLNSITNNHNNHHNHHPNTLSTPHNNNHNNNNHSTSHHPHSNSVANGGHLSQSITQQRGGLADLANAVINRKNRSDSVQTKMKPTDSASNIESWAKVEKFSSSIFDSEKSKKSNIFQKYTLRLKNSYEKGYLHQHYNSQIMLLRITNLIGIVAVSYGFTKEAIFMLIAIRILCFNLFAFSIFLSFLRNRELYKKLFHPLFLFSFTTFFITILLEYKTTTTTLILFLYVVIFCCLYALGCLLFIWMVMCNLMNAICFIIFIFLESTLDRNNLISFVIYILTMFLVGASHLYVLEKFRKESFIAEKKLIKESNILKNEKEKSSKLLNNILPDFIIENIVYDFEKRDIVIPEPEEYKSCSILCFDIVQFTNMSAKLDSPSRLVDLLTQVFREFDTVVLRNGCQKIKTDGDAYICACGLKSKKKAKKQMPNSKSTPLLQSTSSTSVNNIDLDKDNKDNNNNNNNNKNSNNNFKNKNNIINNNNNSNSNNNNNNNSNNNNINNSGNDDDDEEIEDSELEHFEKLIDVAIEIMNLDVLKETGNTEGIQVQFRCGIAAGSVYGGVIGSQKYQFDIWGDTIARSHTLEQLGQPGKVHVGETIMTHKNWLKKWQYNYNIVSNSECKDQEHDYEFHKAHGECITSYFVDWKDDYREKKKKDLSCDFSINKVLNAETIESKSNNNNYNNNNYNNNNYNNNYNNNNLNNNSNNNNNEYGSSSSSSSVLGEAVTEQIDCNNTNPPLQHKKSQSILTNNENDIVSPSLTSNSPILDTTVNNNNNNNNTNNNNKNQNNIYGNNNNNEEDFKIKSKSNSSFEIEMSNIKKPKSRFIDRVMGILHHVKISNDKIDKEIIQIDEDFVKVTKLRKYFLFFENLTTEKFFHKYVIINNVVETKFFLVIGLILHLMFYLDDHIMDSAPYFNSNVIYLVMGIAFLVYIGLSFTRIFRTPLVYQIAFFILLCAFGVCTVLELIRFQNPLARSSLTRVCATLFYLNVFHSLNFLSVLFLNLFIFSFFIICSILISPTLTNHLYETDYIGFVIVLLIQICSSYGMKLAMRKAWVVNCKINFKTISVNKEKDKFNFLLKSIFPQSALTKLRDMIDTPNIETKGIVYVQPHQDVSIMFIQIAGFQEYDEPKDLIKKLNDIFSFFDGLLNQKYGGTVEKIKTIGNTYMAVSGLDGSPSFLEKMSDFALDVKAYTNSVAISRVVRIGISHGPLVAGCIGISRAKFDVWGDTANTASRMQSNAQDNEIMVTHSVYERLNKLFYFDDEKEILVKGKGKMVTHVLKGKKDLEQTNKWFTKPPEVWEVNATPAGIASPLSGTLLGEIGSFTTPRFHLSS

SMILES: Nc1ncnc2c1ncn2[C@@H]1O[C@H](COP(=O)(O)OP(=O)(O)OP(=O)(O)O)[C@@H](O)[C@H]1O [ATP]
- conversion of [32P]ATP to [32P]cAMP, Dowex/alumina columns: MnSO4 induced an increase in adenylyl cyclase activity in ACA-YFP/aca^− EVs
